Molecules are shown by their SMILES.

In the assay the target is T1, VvCAT2.
T1 construct: gene CAT2; full-length, C-terminal 6His, reconstituted in proteoliposomes
Kind of assay: competitive inhibition of [3H]arginine uptake in proteoliposomes with purified transporter (Lineweaver-Burk); also transported as [3H]ornithine. In kind it is biochemical, Vitis vinifera.

Take `NCCC[C@H](N)C(=O)O` [ornithine]: the affinity corresponds to a Ki of 2.2 ± 0.5 mM.

The record behind these values is PMC12250071, “Cloning, Expression and Functional Characterization of V. vinifera CAT2 Arginine Transporter” (International Journal of Molecular Sciences, 2025).
